Earlier results, collected in PMC11199504, “New hemisynthetic derivatives of sphaeropsidin phytotoxins triggering severe endoplasmic reticulum swelling in cancer cells” (Scientific Reports, 2024).

Assays:
Set-up in all cases: method as in doi:10.1016/j.phytol.2012.08.011
[1] = system: A549; details: 72 h treatment; read-out: IC50 determined by MTT assays, A549; cited from earlier work
[2] = system: SKMEL-28; details: 72 h treatment; read-out: IC50 determined by MTT assays, SKMEL-28; cited from earlier work
[3] = system: U373; details: 72 h treatment; read-out: IC50 determined by MTT assays, U373; cited from earlier work
[4] = system: Hs683; details: 72 h treatment; read-out: IC50 determined by MTT assays, Hs683; cited from earlier work
[5] = system: B16F10; details: 72 h treatment; read-out: IC50 determined by MTT assays, B16F10; cited from earlier work
[6] = system: A549, SKMEL-28, U373, MCF7, Hs683, B16F10; details: mean over cell lines (MCF7 not available); read-out: IC50 determined by MTT assays, Mean; cited from earlier work

C=CC1(C)C=C2C(=O)C3(OC(C)=O)OC(=O)C4(CCCC(C)(C)C34)C2(O)CC1 (stereo not drawn) [Compound 2]
IC50 [1]: 2290 ± 130 nM | IC50 [2]: 2680 ± 40 nM | IC50 [3]: 950 ± 20 nM | IC50 [4]: 3760 ± 40 nM | IC50 [5]: 1560 ± 160 nM | IC50 [6]: 2250 ± 480 nM
